# Measured values published in BindingDB's records for doi:10.1021/jm050292k (Maxim Pharmaceuticals, 2005).
# Assays:
# [1] = Caspase-3 activation activity tested in DLD1 colon cells done for 24 or 48 hr at 37 degree C
# [2] = Caspase-3 activation activity tested in T47D breast cells done for 24 or 48 hr at 37 degree C
# [3] = Caspase-3 activation activity tested in H1299 lung cancer cells done for 24 or 48 hr at 37 degree C
# [4] = Caspase-3 activation activity tested in […] cancer cells done for 24 or 48 hr at 37 degree C
# [5] = Caspase-3 activation activity tested in HT-29 cancer cells done for 24 or 48 hr at 37 degree C
# [6] = Caspase-3 activation activity tested in LnCap cancer cells done for 24 or 48 hr at 37 degree C
# [7] = Caspase-3 activation activity tested in ZR-75-1 cancer cells done for 24 or 48 hr at 37 degree C
# [8] = Caspase activation activity of compound in cell line H-1299 nonsmall-cell lung cancer cells
smiles,measurement,setting,value
"FC(F)(F)c1ccc(-c2noc(-c3sccc3Cl)n2)cn1 [5-[5-(3-Chloro-thiophen-2-yl)-[1,2,4]oxadiazol-3-yl]-2-trifluoromethyl-pyridine]",EC50,[1],240 nM
same,EC50,[2],920 nM
same,EC50,[3],> 10000 nM
"FC(F)(F)c1ccc(-c2noc(-c3sccc3Cl)n2)cc1 [5-(3-Chloro-thiophen-2-yl)-3-(4-trifluoromethyl-phenyl)-[1,2,4]oxadiazole]",EC50,[1],440 nM
same,EC50,[4],> 10000 nM
same,EC50,[2],1210 nM
same,EC50,[5],760 nM
same,EC50,[6],> 10000 nM
same,EC50,[7],3340 nM
same,EC50,[3],> 40000 nM
"Clc1ccc(-c2noc(-c3ccccc3Cl)n2)cc1 [5-(2-Chloro-phenyl)-3-(4-chloro-phenyl)-[1,2,4]oxadiazole]",EC50,[2],> 40000 nM
same,EC50,[3],> 40000 nM
"Clc1ccc(-c2noc(-c3sccc3Cl)n2)nc1 [5-Chloro-2-[5-(3-chloro-thiophen-2-yl)-[1,2,4]oxadiazol-3-yl]-pyridine]",EC50,[1],390 nM
same,EC50,[2],1590 nM
same,EC50,[3],> 40000 nM
"FC(F)(F)c1ccc(-c2noc(-c3occc3Br)n2)cc1 [5-(3-Bromo-furan-2-yl)-3-(4-trifluoromethyl-phenyl)-[1,2,4]oxadiazole]",EC50,[1],1070 nM
same,EC50,[2],2010 nM
same,EC50,[3],> 10000 nM
"CN(C)c1ccc(-c2noc(-c3sccc3Cl)n2)cc1 [{4-[5-(3-Chloro-thiophen-2-yl)-[1,2,4]oxadiazol-3-yl]-phenyl}-dimethyl-amine]",EC50,[1],> 10000 nM
same,EC50,[2],> 40000 nM
same,EC50,[3],> 40000 nM
"Cc1ccc(-c2noc(-c3sccc3Cl)n2)cc1 [5-(3-Chloro-thiophen-2-yl)-3-p-tolyl-[1,2,4]oxadiazole]",EC50,[1],1420 nM
same,EC50,[2],3660 nM
same,EC50,[3],> 10000 nM
"Clc1ccc(-c2noc(-c3sccc3Cl)n2)cc1 [3-(4-Chloro-phenyl)-5-(3-chloro-thiophen-2-yl)-[1,2,4]oxadiazole]",EC50,[1],790 nM
same,EC50,[2],1770 nM
same,EC50,[3],> 40000 nM
"CCOc1ccsc1-c1nc(-c2ccc(Cl)cc2)no1 [3-(4-Chloro-phenyl)-5-(3-ethoxy-thiophen-2-yl)-[1,2,4]oxadiazole]",EC50,[1],> 10000 nM
same,EC50,[2],> 40000 nM
same,EC50,[3],> 40000 nM
"FC(F)(F)c1cccc(-c2noc(-c3sccc3Cl)n2)c1 [5-(3-Chloro-thiophen-2-yl)-3-(3-trifluoromethyl-phenyl)-[1,2,4]oxadiazole]",EC50,[1],280 nM
same,EC50,[2],900 nM
same,EC50,[3],> 10000 nM
"Clc1ccc(-c2noc(-c3cccs3)n2)cc1 [3-(4-Chloro-phenyl)-5-thiophen-2-yl-[1,2,4]oxadiazole]",EC50,[1],> 10000 nM
same,EC50,[2],> 40000 nM
same,EC50,[3],> 40000 nM
"FC(F)(F)c1ccc(-c2noc(-c3occc3Cl)n2)cc1 [5-(3-Chloro-furan-2-yl)-3-(4-trifluoromethyl-phenyl)-[1,2,4]oxadiazole]",EC50,[1],480 nM
same,EC50,[2],520 nM
same,EC50,[3],> 10000 nM
"O=[N+]([O-])c1ccc(-c2noc(-c3occc3Cl)n2)cc1 [5-(3-Chloro-furan-2-yl)-3-(4-nitro-phenyl)-[1,2,4]oxadiazole]",EC50,[2],1970 nM
same,EC50,[3],> 40000 nM
"Cc1csc(-c2nc(-c3ccc(Cl)cc3)no2)c1Cl [5-(3-Chloro-4-methyl-thiophen-2-yl)-3-(4-chloro-phenyl)-[1,2,4]oxadiazole]",EC50,[1],> 10000 nM
same,EC50,[2],> 40000 nM
same,EC50,[3],> 40000 nM
"Clc1ccc(-c2noc(-c3ccco3)n2)cc1 [3-(4-Chloro-phenyl)-5-furan-2-yl-[1,2,4]oxadiazole]",EC50,[1],> 10000 nM
same,EC50,[2],17400 nM
same,EC50,[3],> 40000 nM
"Clc1ccc(-c2noc(-c3sccc3Cl)n2)cc1Cl [5-(3-chlorothiophen-2-yl)-3-(3,4-dichlorophenyl)-1,2,4-oxadiazole]",EC50,[1],370 nM
same,EC50,[2],1410 nM
same,EC50,[3],> 10000 nM
"Clc1ccc(-c2noc(-c3occc3Cl)n2)nc1 [5-Chloro-2-[5-(3-chloro-furan-2-yl)-[1,2,4]oxadiazol-3-yl]-pyridine]",EC50,[8],> 10000 nM
same,EC50,[1],580 nM
same,EC50,[2],1110 nM
"Cc1cc(Cl)ccc1-c1noc(-c2sccc2Cl)n1 [3-(4-chloro-2-methylphenyl)-5-(3-chlorothiophen-2-yl)-1,2,4-oxadiazole]",EC50,[1],380 nM
same,EC50,[2],910 nM
same,EC50,[3],> 40000 nM
"FC(F)(F)Oc1ccc(-c2noc(-c3sccc3Cl)n2)cc1 [5-(3-Chloro-thiophen-2-yl)-3-(4-trifluoromethoxy-phenyl)-[1,2,4]oxadiazole]",EC50,[1],430 nM
same,EC50,[2],890 nM
same,EC50,[3],> 10000 nM
"Clc1ccc(-c2noc(-c3occc3Br)n2)cc1 [5-(3-Bromo-furan-2-yl)-3-(4-chloro-phenyl)-[1,2,4]oxadiazole]",EC50,[1],830 nM
same,EC50,[2],1080 nM
same,EC50,[3],> 10000 nM
"Clc1ccsc1-c1nc(-c2ccccc2)no1 [5-(3-Chloro-thiophen-2-yl)-3-phenyl-[1,2,4]oxadiazole]",EC50,[1],760 nM
same,EC50,[2],2820 nM
same,EC50,[3],> 40000 nM
"Clc1ccc(-c2noc(-c3occc3Cl)n2)cc1 [5-(3-Chloro-furan-2-yl)-3-(4-chloro-phenyl)-[1,2,4]oxadiazole]",EC50,[1],1490 nM
same,EC50,[2],1740 nM
same,EC50,[3],> 10000 nM
"FC(F)(F)c1ccc(-c2noc(-c3sccc3Cl)n2)nc1 [2-[5-(3-Chloro-thiophen-2-yl)-[1,2,4]oxadiazol-3-yl]-5-trifluoromethyl-pyridine]",EC50,[1],410 nM
same,EC50,[2],1440 nM
same,EC50,[3],> 10000 nM
"FC(F)(F)c1ccc(-c2noc(-c3occc3Br)n2)nc1 [2-[5-(3-Bromo-furan-2-yl)-[1,2,4]oxadiazol-3-yl]-5-trifluoromethyl-pyridine]",EC50,[1],700 nM
same,EC50,[2],610 nM
same,EC50,[3],> 10000 nM
"Cc1ccc(-c2noc(-c3cccs3)n2)cc1 [5-Thiophen-2-yl-3-p-tolyl-[1,2,4]oxadiazole]",EC50,[1],> 10000 nM
same,EC50,[2],> 40000 nM
same,EC50,[3],> 40000 nM
"FC(F)(F)c1ccc(-c2noc(-c3ccccc3Cl)n2)cc1 [5-(2-Chloro-phenyl)-3-(4-trifluoromethyl-phenyl)-[1,2,4]oxadiazole]",EC50,[2],> 40000 nM
same,EC50,[3],> 40000 nM
"Clc1ccc(-c2noc(-c3sccc3Cl)n2)cn1 [2-Chloro-5-[5-(3-chloro-thiophen-2-yl)-[1,2,4]oxadiazol-3-yl]-pyridine]",EC50,[1],290 nM
same,EC50,[2],750 nM
same,EC50,[3],> 10000 nM
"Clc1ccc(-c2noc(-c3sccc3Br)n2)cc1 [5-(3-Bromo-thiophen-2-yl)-3-(4-chloro-phenyl)-[1,2,4]oxadiazole]",EC50,[1],1320 nM
same,EC50,[2],3320 nM
same,EC50,[3],> 10000 nM
"Clc1ccc(-c2noc(-c3occc3Br)n2)nc1 [2-[5-(3-Bromo-furan-2-yl)-[1,2,4]oxadiazol-3-yl]-5-chloro-pyridine]",EC50,[1],840 nM
same,EC50,[2],1610 nM
same,EC50,[3],> 10000 nM
"COc1ccc(-c2noc(-c3sccc3Cl)n2)cc1 [5-(3-Chloro-thiophen-2-yl)-3-(4-methoxy-phenyl)-[1,2,4]oxadiazole]",EC50,[1],1450 nM
same,EC50,[2],4170 nM
same,EC50,[3],> 10000 nM
"FC(F)(F)c1cc(-c2noc(-c3sccc3Cl)n2)ccc1Cl [5-(3-Chloro-thiophen-2-yl)-3-(4-chloro-3-trifluoromethyl-phenyl)-[1,2,4]oxadiazole]",EC50,[1],560 nM
same,EC50,[2],930 nM
same,EC50,[3],> 10000 nM
